From patent US8334277B2, “{4-[2-(dimethylamino)-1-(1-hydroxycyclohexyl)ethyl]phenoxy}phosphate or a pharmaceutically acceptable salt thereof, a production method therefor and a pharmaceutical composition for preventing and treating central nervous system disorders containing the same as an active component” (JE IL Pharmaceutical Co., Ltd., priority 2008, dated 2012)

Assays:
[1] = Pharmacokinetics experiment, oral administration, blood concentration by LC/MS/MS; assay type: in vivo, SD rats; details: 120 mg/kg oral
Procedure: 9-week-old female […], SD rats, weighing 320±20 g each, were used in the experiment (SPF, production firm: coretech). ODV phosphate compound prepared by the embodiment was dissolved in solvent (100% distilled water) and 120 mg/kg of the same was orally administered to 3 mice. After 0.08, 0.25, 0.5, 1, 2, 3, 4, 6 hours of administration, blood was taken from mice, and separated by centrifuge. The concentration of the separated blood was measured with LC/MS/MS. As a comparative example, ODV succinate hydrate was measured in the same manner explained above.
Cmax is the highest concentration level of blood in body, Tmax is the time to reach the highest concentration level of blood, AUC0-t is square between blood concentration to time and time, AUC0-inf is square between blood concentration and time, and t1/2 is half-life of compound in body, and MRTinf is remaining period of compound in body.

[2] = system: ICR mice; test: Acute toxicity experiment, intraperitoneal injection, number of dead mice over 7 days; assay type: in vivo; details: for The number of death mice: Day 1, 8 mice
Procedure: Experiment was conducted to measure acute toxicity of ODV phosphate compound according to an embodiment of the present invention.
7-week-old ICR mice, weighing 25˜35 g each, were used in the experiment (SPF, production firm: coretech).

[3] = Measurement of solubility in water (HPLC, saturated solution); assay type: physicochemical
Procedure: Experiment was conducted to measure water solubility of ODV phosphate compound of the present invention.
40, 50 and 60 mg of ODV phosphate composition prepared by the embodiment was mixed in 100 mL of water to form 0.4, 0.5 and 0.6 mg/mL concentration of ODV phosphate solution respectively. The above ODV phosphate solution and internal standard substance were analyzed with HPLC to measure ODV phosphate according to the concentration of ODV phosphate and peak area ratio of internal standard substance, and a calibration curve was set. The HPLC analysis was done many times to measure the average value of the calibration curve.
An excessive amount of ODV phosphate compound (approximately 400 mg) prepared by the embodiment was dissolved in 2 mL of water and filtered to form a saturated solution. 1 mL of the above saturated solution was diluted with water to prepare 20 mL of solution. The diluting process was repeated many times to form saturated solution with 800 times of dilution rate. This solution and internal standard substance were analyzed with HPLC to measure ODV phosphate and peak area ratio of internal standard. The measured value was substituted in calibration curve to calculate the concentration, and multiply the dilution rate to measure solubility.

In the case of `CN(C)CC(c1ccc(OP(=O)(O)O)cc1)C1(O)CCCCC1` (stereo not shown) [ODV phosphate, {4-[2-(dimethylamino)-1-(1-hydroxycyclohexyl)ethyl]phenoxy}phosphate], the “AUC0-inf compared with ODV succinate hydrate” value [1] is reported as “noticeably higher”, the “Cmax compared with ODV succinate hydrate” value [1] is reported as “noticeably higher” and the “dead mice over the whole observation” value ([2]; 450 mg/kg i.p., for 7 days, 8 mice) is reported as “no mice were dead”. For the same compound, the “water solubility, times higher than ODV succinate” value ([3]; 313.4 vs […]) was 4 times and the solubility ([3]; thermodynamic from solid) was 313 mg/mL.

Compound `CN(C)CC(c1ccc(O)cc1)C1(O)CCCCC1.O=C(O)CCC(=O)O` (stereo not shown) [ODV succinate] has an AUC0-inf ([1]; blood) of 9268.8 ng·h/mL, a Cmax ([1]; blood) of 2786.7 ng/mL and an MRTinf ([1]; blood) of 5.7 h. The Tmax ([1]; blood) was 0.5 h, the t1/2 ([1]; blood) was 5.0 h and the AUC0-t ([1]; blood, sampling to 6 hours) was 7017.4 ng·h/mL. The “The number of death mice” value ([2]; 350 mg/kg i.p.) was 2 and the “The number of death mice” value ([2]; 450 mg/kg i.p.) was 8.
